Assay results from patent publication US20050255493A1, “Molecular targeting of the IGF-1 receptor” (priority 2002, published 2005).
“Also recorded” adds a separate entry of the source.

Assays:
[1] = system: IGF1R; assay: IGF1R level by immunoblotting in transfected MDA-231 cells; assay type: cell-based, human
Procedure: (§1) The human and murine cell lines used in this study were cultured in RPMI 1640 plus 10% FCS at 37° C. in a humidified atmosphere of 5% CO2. The cultures were negative when tested for Mycoplasma infection. Cultures were passaged the day before transfection to achieve 30-50% confluence the following day. Initial transfections of ASOs used 1-2.5 μg/ml Cytofectin (Glen Research, Sterling, Va.), according to the manufacturer's instructions. Latterly Oligofectamine (Life Sciences) has been used for all ASO and RNAi transfections. The method was as described (see manufacturer's instructions and www.dharmacon.com) with minor modifications. For transfection of monolayers seeded in 6 well plates, 5 μl phosphorothioate oligonucleotide or RNA duplex at 100× final concentration were mixed with 2501 serum-free Optimem (Gibco-BRL). In a separate tube 2 μl Oligofectamine was mixed with 68 μl Optimem. After 10 min incubation at room temperature the contents of the two tubes were mixed and incubated for a further 25 min at room temperature. Monolayers were washed with 1-2 ml Optimem. To the cells were added 175 μl Optimem followed by the 325 μl complexes. Volumes were scaled up by factors of 2.22 or 6.05 for transfection in 60 mm or 100 mm dishes respectively. Cultures were incubated at 37° C. for 4 hr, and then 50 μl FCS and 3.5 ml RPMI plus 5% FCS were added to each well. After 48 hr incubation effects on IGF1R and IR expression were determined by immunoblotting. Some transfected cultures were serum-starved overnight, divided into two aliquots and treated with 10 nM Long R3-IGF-I (GroPep, Adelaide) or diluent for 30 min at 37° C. prior to lysis.
(§2) IGF1R expression was assessed by immunoblotting as previously described (Macaulay et al 2001). After washing in ice-cold PBS, cells were lysed in 50 mM Hepes pH 7.5, 100 mM NaCl, 10 mM EDTA, 1% Triton-X-100, 4 mM sodium pyrophosphate, 2 mM sodium orthovanadate, 10 mM sodium fluoride, 1 mM PMSF, 2 μg/ml each leupeptin and aprotinin. Lysates were centrifuged for 15 minutes at 14,000 g, the protein concentration of supernatants was measured using BCA assay reagent (Pierce), and equivalent amounts of protein were separated on 7.5% SDS-PAGE gels and transferred to nitrocellulose. Target protein levels were assessed using antibodies to the β-subunit of the IGF1R or IR (Santa Cruz), phospho-Ser 473 Akt or total Akt (Cell Signalling, New England Biolabs) or β-tubulin (Sigma). Activated IGF1R was detected by immunoprecipitation for phosphotyrosine (P-Tyr-100, Cell Signaling Technology). Primary antibodies were detected with HRP-conjugated secondary antibodies (Dako), and ECL Plus (Amersham Pharmacia).
The ASOs and RNAi duplexes were transfected into MDA-231 cells (human ER negative breast cancer) using Cytofectin or Oligofectamine, as described above. After 48 hr the cells were lysed, and IGF1R and IR levels were measured by immunoblotting. The intensity of the autoradiographic bands was quantified by densitometry, and IGF1R (or IR) levels were corrected for loading differences. The specific IGF1R or IR results are presented as % IGF1R (or IR) level of that in cells transfected with the same concentration of an appropriate control. This was a scrambled control oligonucleotide for ASOs, and an inverted RNA duplex for RNAi.

[2] = system: B16 melanoma cells; assay: Growth in vivo of B16 melanoma cells transfected with RNA duplexes; details: B16 cells transfected with 200 nM duplex on three consecutive days, flanks of C57BL mice
Procedure: FIG. 8 illustrates growth in vivo in C57BL mice of B16 melanoma cells transfected with RNA duplexes. B16 melanoma cells were transfected with 200 nM duplexes (RNA22 is R2, Inv22 is Inv2) or oligofectamine alone (OF) for three consecutive days. On the 4th day cells were injected into the flanks of C57BL mice, using 2.5×10^5 cells/mouse, using groups of 5 mice. Tumours were measured in 2 dimensions every 2-3 days. Tumour volumes were calculated as n(a×b^2)/6 where a is the larger and b the smaller dimension.
B16 cells were transfected with 200 nM RNA duplexes (RNA22=R2, 22Inv=Inv2) or oligofectamine alone (OF) for three consecutive days. On the 4th day cells were injected into the flanks of C57BL mice, using 2.5×10^5 cells/mouse, using groups of 5 mice. Tumours were measured in 2 dimensions every 2-3 days. Tumour volumes were calculated as n(a×b^2)/6 where a is the larger and b the smaller dimension.

[3] = system: IGF-I signaling to Akt; assay: IGF signalling: phosphorylation of IGF1R β-subunit and Akt after IGF-I in transfected MDA-MB-231 cells; assay type: cell-based, human; details: MDA-MB-231, 100 nM duplexes, 50 nM IGF-1 for 30 min
Procedure: as §2
MDA-MB-231 cells transfected with 100 nM RNA duplexes were serum-starved overnight and treated with 50 nM IGF-1 or diluent for 30 min. The cells were lysed and lysates were analysed by immunoblotting for IGF1R, phospho-Ser473-Akt and total Akt, and by phosphotyrosine immunoprecipitation and IGF1R immunoblotting to detect phosphorylated IGF1R β-subunit (see FIG. 7).

[4] = system: IGF1R; assay: IGF1R levels by immunoblotting in B16 murine melanoma cells transfected with RNAi duplexes; assay type: cell-based; details: 10 nM duplex, 48 hr
Procedure: The human and murine cell lines used in this study were cultured in RPMI 1640 plus 10% FCS at 37° C. in a humidified atmosphere of 5% CO2. The cultures were negative when tested for Mycoplasma infection. Cultures were passaged the day before transfection to achieve 30-50% confluence the following day. Initial transfections of ASOs used 1-2.5 μg/ml Cytofectin (Glen Research, Sterling, Va.), according to the manufacturer's instructions. Latterly Oligofectamine (Life Sciences) has been used for all ASO and RNAi transfections. The method was as described (see manufacturer's instructions and www.dharmacon.com) with minor modifications. […] After 48 hr incubation effects on IGF1R and IR expression were determined by immunoblotting. […]
IGF1R expression was assessed by immunoblotting as previously described (Macaulay et al 2001). […] Lysates were centrifuged for 15 minutes at 14,000 g, the protein concentration of supernatants was measured using BCA assay reagent (Pierce), and equivalent amounts of protein were separated on 7.5% SDS-PAGE gels and transferred to nitrocellulose. Target protein levels were assessed using antibodies to the β-subunit of the IGF1R or IR (Santa Cruz), phospho-Ser 473 Akt or total Akt (Cell Signalling, New England Biolabs) or β-tubulin (Sigma). Activated IGF1R was detected by immunoprecipitation for phosphotyrosine (P-Tyr-100, Cell Signaling Technology). […]

[5] = system: IGF1R; assay: IGF1R levels by immunoblotting in human tumour cell lines transfected with RNAi duplexes; assay type: cell-based; details: for IGF1R level as % of levels in cells transfected with inverted control duplex: 10 nM duplex, 48 hr
Procedure: as §1
as §2, with “Pharmacia). […]” for “Pharmacia).”
Tumour cells were transfected with 10 nM duplexes and IGF1R levels were measured after 48 hr. After correction for loading differences IGF1R levels in cells transfected with RNAi were expressed as % of levels in cells transfected with equivalent inverted control duplex.

[6] = system: UC101 human ovarian cancer cells; assay: Tumorigenicity of UC101 ovarian cancer cells transfected with siRNA (xenografts); assay type: in vivo, female athymic (nu/nu mice); details: UC101 cells transfected with 200 nM siRNA, nu/nu mice
Procedure: UC101 ovarian cancer cells were transfected with 200 nM siRNA, mixed with irradiated NIH-3T3 cells and inoculated into the flanks of female athymic (nu/nu mice).
Tumorigenicity testing was conducted using UC101 human ovarian cancer cells transfected with 200 nM siRNA. After 48 hr the cells were inoculated into the flanks of female athymic (nu/nu mice), using 5×10^6 tumour cells mixed with 5×10^6 irradiated NIH-3T3 cells per mouse. Tumours were measured and volumes calculated as described (Macaulay et al., Oncogene 20: 2029-40, 2001). All procedures were performed in accordance with the Home Office Scientific Procedures Act 1986, and with the approval of the Animal Ethics Committee of Cancer Research UK.

[7] = system: IGF1R; assay: IGF1R Western blot in prostate cancer cells transfected with siRNA TSS; assay type: cell-based, human; details: for IGF1R level, % of levels in cells treated with control duplex: 48 hours after transfection
Procedure: Prostate cancer cells were transfected with 200 nM siRNA TSS homologous to nt 166-186 of the IGF1R gene or inverted sequence control.
as §1, §2

[8] = system: Human prostate cancer cells; assay: Clonogenic survival of human prostate cancer cells transfected with siRNA TSS; assay type: cell-based; details: all three prostate cancer cell lines (DU145, PC3, LNCaP), 200 nM
Procedure: FIG. 18 illustrates how IGF1R gene silencing inhibits survival of prostate cancer cells. Human prostate cancer cells were transfected with 200 nM TSS or control duplex. After 48 hr the cells were disaggregated and re-seeded in 10 cm dishes (2000 cells/dish). After 1-3 weeks incubation (depending on the cell line), visible colonies were stained and counted. Bars show mean±sem of triplicate dishes. **p<0.01, ***p<0.001 for comparison of survival in cultures treated with TSS versus control duplex.

[9] = system: DU145 and PC3 cells; assay: Radio- and chemosensitivity of prostate cancer cells after IGF1R gene silencing (clonogenic, change in IC50); assay type: cell-based, human; details: 200 nM duplex (FIG. 19)
Procedure: FIG. 19 illustrates that IGF1R gene silencing enhances chemosensitivity of androgen-resistant prostate cancer. PC3 cells were transfected with 200 nM TSS (red line) or scrambled sequence control duplex (green). After 48 hr the cells were disaggregated and re-seeded in 10 cm dishes (4000 cells/dish). The following day the cultures were treated with mitoxantrone at the indicated concentrations for 24 hours, after which the medium was changed and cells were allowed to survive to form colonies (>50 cells). Dotted lines mark IC501 dose required to inhibit survival to 50% untreated level.
Furthermore, IGF1R gene silencing appeared to enhance prostate cancer radio- and chemo-sensitivity (FIG. 19). The alteration in sensitivity was calculated as change in IC50, the concentration of drug/irradiation required to reduce the colony count to 50% of that in untreated cultures, as follows: [formula]

[10] = system: Human EJ28 invasive bladder carcinoma cells; assay: Survival and mitomycin-C sensitivity of EJ28 invasive bladder carcinoma cells; assay type: cell-based; details: human bladder cancer cells
Procedure: FIG. 20 illustrates that IGF1R gene silencing inhibits survival and enhances chemosensitivity of invasive bladder cancer. Human EJ28 invasive bladder carcinoma cells were transfected with 200 nM TSS or control duplex. After 48 hr the cells were disaggregated and re-seeded. To measure survival, 2000 cells were seeded in 10 cm dishes. Survival in TSS-transfected cells was only 0.2% of that in control-treated cultures, p<0.001). For chemosensitivity testing, cells were re-seeded into 96-well plates. The following day cultures were treated with mitomycin-C at the indicated concentrations for 24 hours, after which the medium was changed. After a further 4 days, growth was measured by calorimetric assay (MTS assay).

## R2: RNAi duplex GCCGAUGUGUGAGAAGACCTT / TTCGGCUACACACUCUUCUGG, SEQ ID NO:23 (sense GCCGAUGUGUGAGAAGACCNN; chemistry not fully specified; one strand is listed 3' to 5')
[1]; MDA-231 breast cancer cells, 10-200 nM
  Inhibition of IGF1R expression on immunoblot: almost complete inhibition of IGF1R expression
[2]
  Tumour growth in vivo compared with inverted control RNA duplex: reduced growth rate in vivo
[3]
  IGF-I signaling to Akt / IGF-1-induced phosphorylation: could not detect IGF-1-induced phosphorylation of the IGF1R β-subunit or of Akt
[4]
  IGF1R level as % of levels in cells transfected with inverted control duplex: 45 ± 4%
[5]; A549 human non-small cell lung
  IGF1R level as % of levels in cells transfected with inverted control duplex: 22 ± 2%
[5]; DU145 human prostate cancer
  IGF1R level as % of levels in cells transfected with inverted control duplex: 34 ± 13%
[5]; ME human melanoma
  IGF1R level as % of levels in cells transfected with inverted control duplex: 53 ± 3%
[5]; ME melanoma cells, 10-200 nM
  Inhibition of IGF1R expression on immunoblot: almost complete inhibition of IGF1R expression

## R6: RNAi duplex CUACAUUGUGGGGAAUAAGTT / TTGAUGUAACACCCCUUAUUC, SEQ ID NO:34 (CUACAUUGUGGGGAAUAAGNN; second strand not cited, chemistry not fully specified)
[1]; MDA-231 cells, 0.5, 5 and 50 nm (FIG. 5)
  IGF1R downregulation compared between 21mer duplexes: significantly less potent; also recorded: less than the effect of the mutant duplex Mut2
[3]
  IGF-I signaling to Akt / IGF-1-induced phosphorylation: not sufficient to abolish IGF-I signaling to Akt
[4]
  IGF1R level as % of levels in cells transfected with inverted control duplex: 72 ± 14%
[6]
  Tumour development: rapidly growing tumours
[5]; 10 nM, human ME melanoma and A549 NSCLC
  IGF1R downregulation: essentially inactive
[5]; A549 human non-small cell lung
  IGF1R level as % of levels in cells transfected with inverted control duplex: 102 ± 16%
[5]; DU145 human prostate cancer
  IGF1R level as % of levels in cells transfected with inverted control duplex: 74 ± 8%
[5]; ME human melanoma
  IGF1R level as % of levels in cells transfected with inverted control duplex: 104 ± 5%

## siRNA TSS: 21mer duplex homologous to nucleotides 166-186 of the IGF1R transcript, CGACUAUCAGCAGCUGAAGTT / TTGCUGAUAGUCGUCGACUUC, SEQ ID NO:37 (CGACUAUCAGCAGCUGAAGNN; second strand not cited, chemistry not fully specified)
[1]; MDA-MB-231 human breast carcinoma cells
  IGF1R gene silencing: induce IGF1R gene silencing
[7]; DU145, 200 nM
  IGF1R level, % of levels in cells treated with control duplex: 18%
[7]; LNCaP, 200 nM
  IGF1R level, % of levels in cells treated with control duplex: 17%
[7]; PC3, 200 nM
  IGF1R level, % of levels in cells treated with control duplex: 22%
[7]; all three prostate cancer cell lines (DU145, PC3, LNCaP)
  Inhibition of IGF1R expression: significant inhibition
[8]
  Inhibition of clonogenic survival: significant inhibition
[9]
  Change in mitoxantrone IC50: −2 fold
[10]
  Clonogenic survival: profound inhibition of clonogenic survival
[10]; MTS assay
  Sensitivity to mitomycin-C: enhancement of sensitivity to mitomycin-C
